Data reported in paper PMC4467547 (Journal of Medicinal Chemistry, 2015).
Residue numbers refer to the chain shown, from its start.

Experiments:
C153A HDAC8 = target: T1, C153A HDAC8 (Homo sapiens, UniProt Q9BY41, C153A); experiment: HDAC8 time-course inhibition; details: SAHA 0-8 μM, SAHA-OBn 0-10 μM (Figure S8)
T1 sequence (Q9BY41 1-377 C153A): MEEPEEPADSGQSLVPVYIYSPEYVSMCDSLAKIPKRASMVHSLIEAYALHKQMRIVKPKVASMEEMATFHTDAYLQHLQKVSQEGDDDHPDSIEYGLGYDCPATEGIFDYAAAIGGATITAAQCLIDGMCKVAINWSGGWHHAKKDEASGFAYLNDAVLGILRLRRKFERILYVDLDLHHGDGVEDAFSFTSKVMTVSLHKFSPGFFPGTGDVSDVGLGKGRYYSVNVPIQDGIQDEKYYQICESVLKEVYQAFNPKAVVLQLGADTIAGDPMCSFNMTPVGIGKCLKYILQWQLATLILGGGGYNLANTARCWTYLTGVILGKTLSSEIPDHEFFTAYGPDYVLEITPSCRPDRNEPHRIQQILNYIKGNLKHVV

WT HDAC8 (Zn2+) = target: T2, WT HDAC8 (Zn2+) (Homo sapiens, UniProt Q9BY41); experiment: HDAC8 time-course inhibition; assay type: biochemical
T2 sequence (Q9BY41 1-377): T1 sequence (Q9BY41 1-377 C153A) with A153C

human plasma stability = assay type: in vitro ADME; details: 1 h, 37 °C
reactivity with GSH = assay type: physicochemical; details: GSH 2 mM, 2 equiv, 50 mM HEPES pH 7.4, 2 h at 37 °C
HH (CTCL) cells = experiment: MTS cell proliferation assay; assay type: cell-based
[1] = system: tubulin acetylation in Jurkat cells; experiment: western blot analysis of tubulin acetylation; assay type: cell-based; details: 6 and 20 μM, 4 h
[2] = stability in the presence of assay components BSA or trypsin; assay type: physicochemical; details: BSA (5 mg/mL) or trypsin (5 mg/mL), 37 °C, 2 h; data not shown
[3] = system: tubulin acetylation in HH cells; experiment: western blot analysis of tubulin acetylation; assay type: cell-based; details: 6 and 20 μM, 4 h
[4] = aqueous stability under simulated physiological conditions; assay type: physicochemical; details: 50 mM HEPES, pH 7.4, 37 °C, 24 h

Row | Compound | inhibition of C153A HDAC8 (in words) (C153A HDAC8) | inhibition of HDAC8 (WT HDAC8 (Zn2+)) | percent parent compound remaining (human plasma stability) | reactivity with GSH (in words) (reactivity with GSH) | effect on cell proliferation (in words) (HH (CTCL) cells; all cells studied (HH, Jurkat, NIH/3T3)) | inhibition of HDAC8 activity (in words) (WT HDAC8 (Zn2+); inhibitor 2–10 μM) | less potent than SAHA in cells (HH (CTCL) cells; HH and Jurkat cells) | tubulin acetylation (western blot) [1] | stable in the presence of assay components [2] | tubulin acetylation (western blot) [3] | maximal rate constant for inactivation (WT HDAC8 (Zn2+); at saturating SAHA-TAP) | time of activity loss on preincubation of enzyme with inhibitor (WT HDAC8 (Zn2+); preincubation, data not shown) | stable to hydrolysis in the absence of thiols [4]
1 | O=C(CCCCCCC(=O)Nc1ccccc1)NO [SAHA, suberoylanilide hydroxamic acid, reference compound] | susceptible to inhibition | > 90% | ~60% |  |  |  |  |  |  |  |  |  | 
2 | O=C(CCCCCCC(=O)Nc1ccccc1)NOCc1ccccc1 [SAHA-OBn] |  |  |  | no change in the HPLC chromatogram | unaffected | does not inhibit |  |  |  |  |  |  | 
3 | CC1=C(C)C(=O)C(CONC(=O)CCCCCCC(=O)Nc2ccccc2)=C(C)C1=O [SAHA-TAP] |  |  | Approximately 72% | reacts rapidly with GSH |  |  | 3–4 fold | increased tubulin acetylation | > 95% | increased tubulin acetylation | 0.0013 s^–1 | ≤ 0.5 h | > 97%
